From patent US9416111B2, “Substituted diazine and triazine spleen tyrosine kinease (Syk) inhibitors” (Merck Sharp & Dohme Corp., priority 2012, dated 2016)
Several values for one entry are separate records, joined by “and”; a condition that tells them apart may be missing. Equal values may be shown once. Read-outs that look alike come from different tables or passages of the source.

Molecular target: T1, recombinant human GST-SYK (Homo sapiens, UniProt P43405)
T1 construct: purchased Carna Biosciences 08-176
Test: Homogeneous Time-Resolved Fluorescence (HTRF) assay for the recombinant human Syk enzyme
Type: biochemical
Details: GST-hSYK 5 pM, ATP 25 μM
Procedure: Homogeneous Time-Resolved Fluorescence (HTRF) Assay for the Recombinant Human Syk Enzyme
A recombinant GST-hSYK fusion protein was used to measure potency of compounds to inhibit human Syk activity. The recombinant human GST-SYK (Carna Biosciences #08-176) (5 pM final concentration) was incubated with various concentrations of the inhibitor diluted in DMSO (0.1% final concentration) for 10 minutes at room temperature in 15 mM Tris-HCl (pH 7.5), 0.01% tween 20, 2 mM DTT in 384 well plate format. To initiate the reaction the biotinylated substrate peptide (250 nM final concentration) that contains the phosphorylation site for Syk was added with magnesium (5 mM final concentration) and ATP (25 μM final concentration). Final volume of the reaction was 10 μL. Phosphorylation of the peptide was allowed to proceed for 45′ at room temperature. To quench the reaction and detect the phosphorylated product, 2 nM of a Europium-anti-phosphotyrosine antibody (Perkin Elmer #AD0161) and 70 nM SA-APC (Perkin-Elmer #CR130-100) were added together in 15 mM Tris pH 7.5, 40 mM EDTA, 0.01% tween 20. Final volume of the quenching solution was 10 μL. The resulting HTRF signal was measured after 30 minutes on an EnVision (Perkin-Elmer) reader using a time-resolved fluorescence protocol.

[1] = IC50 rated in classes, read-out: rhSYK Activity

SMILES | IC50 [1] | IC50 (values in text, read-out: IC50)
Cc1cc(Nc2nccc(C(F)(F)F)n2)cc(-c2cnc(N[C@H]3CCC(=O)NC3)nc2)c1 [Example 2.73, (5S)-5-{[5-(3-methyl-5-{[4-(trifluoromethyl)pyrimidin-2-yl]amino}phenyl)pyrimidin-2-yl]amino}piperidin-2-one] | < 100 nM | –
Cc1cc(Nc2nccc(C(F)(F)F)n2)cc(-c2ccnnc2)c1 [Example 3.43, N-(3-methyl-5-pyridazin-4-ylphenyl)-4-(trifluoromethyl)pyrimidin-2-amine] | 100 to 1000 nM | –
CCOC(=O)CCc1ccc(-c2cc(C)cc(Nc3nccc(C)n3)c2)nn1 [Example 3.40, ethyl 3-(6-{3-methyl-5-[(4-methylpyrimidin-2-yl)amino]phenyl}pyridazin-3-yl)propanoate] | 100 to 1000 nM | –
Cc1cc(Nc2nccc(C(F)(F)F)n2)cc(-c2ccc(N(CCN(C)C)C(=O)N(C)C)nn2)c1 [Example 3.35, 1-[2-(dimethylamino)ethyl]-3,3-dimethyl-1-[6-(3-methyl-5-{[4-(trifluoromethyl)pyrimidin-2-yl]amino}phenyl)pyridazin-3-yl]urea] | 100 to 1000 nM | –
CNC(=O)C1CCCN1c1ncc(-c2cc(C)cc(Nc3nccc(C(F)(F)F)n3)c2)cn1 (racemic) [Example 2.70, N-methyl-1-[5-(3-methyl-5-{[4-(trifluoromethyl)pyrimidin-2-yl]amino}phenyl)pyrimidin-2-yl]prolinamide] | < 100 nM | –
Cc1cc(Nc2nccc(C(F)(F)F)n2)cc(-c2cnc(NC(C)(C)C(=O)O)nc2)c1 [Example 2.2, 2-methyl-N-[5-(3-methyl-5-{[4-(trifluoromethyl)pyrimidin-2-yl]amino}phenyl)pyrimidin-2-yl]alanine] | < 100 nM | –
Cc1cc(Nc2nccc(C(F)F)n2)cc(-c2cnc(C[C@H]3CC[C@H](C(=O)O)CC3)nc2)c1 [Example 5.1, trans-4-{[5-(3-{[4-(difluoromethyl)pyrimidin-2-yl]amino}-5-methylphenyl)pyrimidin-2-yl]methyl}cyclohexanecarboxylic acid] | < 100 nM | 2.9 nM
COCCNc1ncc(-c2cc(C)cc(Nc3nccc(C(F)(F)F)n3)c2)cn1 [Example 1.4, N-(3-{2-[(2-methoxyethyl)amino]pyrimidin-5-yl}-5-methylphenyl)-4-(trifluoromethyl)pyrimidin-2-amine] | < 100 nM | –
COCC(Nc1ncc(-c2cc(C)cc(Nc3nccc(C(F)(F)F)n3)c2)cn1)C(=O)O (racemic) [Example 2.38, O-methyl-N-[5-(3-methyl-5-{[4-(trifluoromethyl)pyrimidin-2-yl]amino}phenyl)pyrimidin-2-yl]serine] | < 100 nM | –
Cc1cc(Nc2nccc(C(F)(F)F)n2)cc(-c2cnc(NC3CCNC3=O)nc2)c1 (stereo not drawn) [Example 2.7, 3-{[5-(3-methyl-5-{[4-(trifluoromethyl)pyrimidin-2-yl]amino}phenyl)pyrimidin-2-yl]amino}pyrrolidin-2-one] | < 100 nM | –
O=C(O)CCc1ccc(-c2cccc(Nc3nccc(C(F)(F)F)n3)c2)nn1 [Example 3.25, 3-[6-(3-{[4-(trifluoromethyl)pyrimidin-2-yl]amino}phenyl)pyridazin-3-yl]propanoic acid] | 100 to 1000 nM | –
CCOC(=O)CCc1cncc(-c2cccc(Nc3nccc(C(F)(F)F)n3)c2)n1 [Example 3.13, ethyl 3-[6-(3-{[4-(trifluoromethyl)pyrimidin-2-yl]amino}phenyl)pyrazin-2-yl]propanoate] | 1000 to 10000 nM | –
Cc1cc(Nc2nccc(C(F)(F)F)n2)cc(-c2cccnn2)c1 [Example 3.28, N-(3-methyl-5-pyridazin-3-ylphenyl)-4-(trifluoromethyl)pyrimidin-2-amine] | 100 to 1000 nM | –
Cc1cc(Nc2nccc(C(F)(F)F)n2)cc(-c2cnc(N3CCC(C(=O)O)CC3)nc2)c1 [Example 2.79, 1-[5-(3-methyl-5-{[4-(trifluoromethyl)pyrimidin-2-yl]amino}phenyl)pyrimidin-2-yl]piperidine-4-carboxylic acid] | < 100 nM | –
Cc1cc(Nc2nccc(C(F)(F)F)n2)cc(-c2cnc(NCCO)nc2)c1 [Example 2.62, 2-{[5-(3-methyl-5-{[4-(trifluoromethyl)pyrimidin-2-yl]amino}phenyl)pyrimidin-2-yl]amino}ethanol] | < 100 nM | –
Cc1cc(Nc2nccc(C(F)(F)F)n2)cc(-c2cnc(NCC3COCCO3)nc2)c1 (stereo not drawn) [Example 2.19, N-(3-{2-[(1,4-dioxan-2-ylmethyl)amino]pyrimidin-5-yl}-5-methylphenyl)-4-(trifluoromethyl)pyrimidin-2-amine] | < 100 nM | –
Cc1cc(Nc2nccc(C(F)(F)F)n2)cc(-c2cnc(N)nc2)c1 [Example 1.3, N-[3-(2-aminopyrimidin-5-yl)-5-methylphenyl]-4-(trifluoromethyl)pyrimidin-2-amine] | < 100 nM | –

SMILES | IC50 [1] | IC50 (values in text, read-out: IC50)
Cc1cc(Nc2nccc(C(F)(F)F)n2)cc(-c2cnc(N(CCO)CCO)nc2)c1 [Example 2.31, 2,2′-{[5-(3-methyl-5-{[4-(trifluoromethyl)pyrimidin-2-yl]amino}phenyl)pyrimidin-2-yl]imino}diethanol] | < 100 nM | –
Cc1cc(Nc2nccc(C(F)(F)F)n2)cc(-c2ccc(OC(C)(C)C(=O)O)nn2)c1 [Example 3.34, 2-methyl-2-{[6-(3-methyl-5-{[4-(trifluoromethyl)pyrimidin-2-yl]amino}phenyl)pyridazin-3-yl]oxy}propanoic acid] | < 100 nM | –
CCOC(=O)CCc1cnc(-c2cc(C)cc(Nc3nccc(C4CC4)n3)c2)cn1 [Example 3.11, ethyl 3-(5-{3-[(4-cyclopropylpyrimidin-2-yl)amino]-5-methylphenyl}pyrazin-2-yl)propanoate] | < 100 nM | –
Cc1cc(Nc2nccc(C(F)(F)F)n2)cc(-c2cnc(N(C)[C@@H](C)C(=O)O)nc2)c1 [Example 2.9, N-methyl-N-[5-(3-methyl-5-{[4-(trifluoromethyl)pyrimidin-2-yl]amino}phenyl)pyrimidin-2-yl]-L-alanine] | < 100 nM | –
Cc1cc(Nc2nccc(C(F)(F)F)n2)cc(-c2ccc(N3CCC(C(=O)O)CC3)nn2)c1 [Example 3.37, 1-[6-(3-methyl-5-{[4-(trifluoromethyl)pyrimidin-2-yl]amino}phenyl)pyridazin-3-yl]piperidine-4-carboxylic acid] | < 100 nM | –
CCCN1CCCN(c2ncc(-c3cc(C)cc(Nc4nccc(C(F)(F)F)n4)c3)cn2)CC1 [Example 2.68, N-{3-methyl-5-[2-(4-propyl-1,4-diazepan-1-yl)pyrimidin-5-yl]phenyl}-4-(trifluoromethyl)pyrimidin-2-amine] | < 100 nM | –
Cc1cc(Nc2nccc(C)n2)cc(-c2ccc(CCC(=O)O)nn2)c1 [Example 3.41, 3-(6-{3-methyl-5-[(4-methylpyrimidin-2-yl)amino]phenyl}pyridazin-3-yl)propanoic acid] | 100 to 1000 nM | –
Cc1cc(Nc2nccc(C(F)(F)F)n2)cc(-c2ccc(CCC(=O)O)nn2)c1 [Example 3.39, 3-[6-(3-methyl-5-{[4-(trifluoromethyl)pyrimidin-2-yl]amino}phenyl)pyridazin-3-yl]propanoic acid] | < 100 nM | –
Cc1cc(Nc2nccc(C(F)F)n2)cc(-c2cnc([C@H](C)[C@H]3CC[C@H](C(=O)O)[C@H](C)C3)nc2)c1 (single isomer, unassigned) [Example 7.2] | < 100 nM | < 0.5 nM
Cc1cc(Nc2nccc(C)n2)cc(-c2cnc(CCC(=O)O)nc2)c1 [Example 3.61, 3-(5-{3-methyl-5-[(4-methylpyrimidin-2-yl)amino]phenyl}pyrimidin-2-yl)propanoic acid] | 100 to 1000 nM and < 100 nM | –
CC(=O)N1CCN(c2ncc(-c3cc(C)cc(Nc4nccc(C(F)(F)F)n4)c3)cn2)CC1 [Example 2.40, N-{3-[2-(4-acetylpiperazin-1-yl)pyrimidin-5-yl]-5-methylphenyl}-4-(trifluoromethyl)pyrimidin-2-amine] | < 100 nM | –
Cc1cc(Nc2nccc(C(F)(F)F)n2)cc(-c2cncnc2)c1 [Example 1.1, N-(3-methyl-5-pyrimidin-5-ylphenyl)-4-(trifluoromethyl)pyrimidin-2-amine] | < 100 nM | 66.2 nM
CCOC(=O)CCc1ncc(-c2cc(C)cc(Nc3nccc(C4CC4)n3)c2)cn1 [Example 1.6, ethyl 3-(5-{3-[(4-cyclopropylpyrimidin-2-yl)amino]-5-methylphenyl}pyrimidin-2-yl)pronanoate] | < 100 nM | –
Cc1cc(Nc2nccc(C(F)(F)F)n2)cc(-c2cnc(NCC(O)C(F)F)nc2)c1 (stereo not drawn) [Example 2.15, 1,1-difluoro-3-{[5-(3-methyl-5-{[4-(trifluoromethyl)pyrimidin-2-yl]amino}phenyl)pyrimidin-2-yl]amino}propan-2-ol] | < 100 nM | –
Cc1cc(Nc2nccc(C(F)(F)F)n2)cc(-c2cnc(N3CCS(=O)(=O)CC3)nc2)c1 [Example 2.20, N-{3-[2-(1,1-dioxidothiomorpholin-4-yl)pyrimidin-5-yl]-5-methylphenyl}-4-(trifluoromethyl)pyrimidin-2-amine] | < 100 nM | –
CCOC(=O)CCc1cnc(-c2cc(C)cc(Nc3nccc(C(F)(F)F)n3)c2)cn1 [Example 3.7, ethyl 3-[5-(3-methyl-5-{[4-(trifluoromethyl)pyrimidin-2-yl]amino}phenyl)pyrazin-2-yl]propanoate] | 100 to 1000 nM | –
